Data published in patent US12459951B2, “Compounds that interact with RAS superfamily proteins for treatment of cancers, inflammatory diseases, rasopathies, and fibrotic disease” (SHY Therapeutics, LLC, priority 2022, dated 2025).

Assays:
Erk1/2 phosphorylation = assay: Erk1/2 Phosphorylation Assay (western blot), Panc-1; assay type: cell-based, human; settings: at 10 μM, * = activation
Procedure, shortened: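 Phospho-Erk1/2 (Thr202/Tyr204) was detected by western blot in lysates of Panc-1 cells (KRas G12D). These had 6 h, 37° C exposure to 10 μM compound or a dilution series for IC50, in 0.3% DMSO. Cells were either starved overnight in 0.5% FBS with a 15-min 1.5 ng/ml EGF pulse, or kept unstimulated in 10% FBS.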

IL6 = assay: IL-6 Quantification Assay (ELISA), LPS-stimulated RAW 264.7; assay type: cell-based; design: inhibition: dose or concentration left out as unconfirmed; settings: Mus musculus, RAW264.7; read-out: IL-6: % inh.
TNF-alpha = TNF-alpha Quantification Assay (ELISA), LPS-stimulated RAW 264.7; assay type: cell-based; settings: Mus musculus, RAW264.7; at 10 μM; read-out: TNFα: % inh.
KRas G12D mutant = assay: Ras GTP Binding Domain Inhibition Assay (Ras Superfamily Assay); settings: 20 μM compound; for KRas G12D mutant + SOS: % inh.: with SOS; for KRas G12D mutant: % inh.: without SOS
Procedure, shortened: (§1)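 Binding of 100 nM fluorescent GTP (Cy3 or Cy5, 45 min, room temperature) was read after washes from plate-captured His-tagged protein. Beforehand, compounds at 20 μM or in dilution series for IC50 sat 3 h on the protein in Tris buffer pH 7.4 or 7.0 with 1% DMSO, Sos GEF optionally added for the last hour.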

KRas wild type = assay: as above; settings: 20 μM compound; for KRas wild type + SOS: % inh.: with SOS; for KRas wild type: % inh.: without SOS
Procedure, shortened: as §1

Rac-1 = target: T1, Rac-1 (Homo sapiens, UniProt P63000); assay: as above; settings: read-out: Rac-1: % inh.
T1 construct: made in house
Procedure, shortened: as §1

Structure (SMILES)	KRas G12D mutant + SOS: % inh. (KRas G12D mutant)	KRas G12D mutant: % inh. (KRas G12D mutant)	KRas wild type + SOS: % inh. (KRas wild type)	KRas wild type: % inh. (KRas wild type)	inhibition at 20 µM (Rac-1)	% inh of Erk1/2 phosphorylation in Panc-1 (Erk1/2 phosphorylation)	inhibition (IL6)	inhibition at 10 µM (TNF-alpha)
CO[C@H]1C[C@H](Nc2nc(-c3nccn3C)nn3cc(-c4cccnc4)c(C)c23)C1 [Compound 151, N-((1r,3r)-3-Methoxycyclobutyl)-5-methyl-2-(1-methyl-1H-imidazol-2-yl)-6-(pyridin-3-yl)pyrrolo[2,1-f][1,2,4]triazin-4-amine]	D (D = 76-100% inhibition)	B (B = 26-49% inhibition)	C (C = 50-75% inhibition)	C (C = 50-75% inhibition)	50 to 75%	D* (85-100% activation)	0%	0%
COCCO[C@H]1C[C@H](Nc2nc(-c3nccn3C)nn3cc(-c4cccnc4)c(C)c23)C1 [Compound 152, N-((1r,3r)-3-(2-methoxyethoxy)cyclo-butyl)-5-methyl-2-(1-methyl-1H-imidazol-2-yl)-6-(pyridin-3-yl)pyrrolo[2,1-f][1,2,4]triazin-4-amine]	C (C = 50-75% inhibition)	C (C = 50-75% inhibition)	B (B = 26-49% inhibition)	C (C = 50-75% inhibition)	50 to 75%	B* (26-49% activation)	1 to 24%	0%
CO[C@H]1C[C@@H](Nc2nc(-c3nccn3C)nn3cc(-c4cccnc4)c(C)c23)C1 [Compound 153, N-((1s,3s)-3-methoxy-cyclobutyl)-5-methyl-2-(1-methyl-1H-imidazol-2-yl)-6-(pyridin-3-yl)pyrrolo[2,1-f][1,2,4]triazin-4-amine]	C (C = 50-75% inhibition)	C (C = 50-75% inhibition)	B (B = 26-49% inhibition)	B (B = 26-49% inhibition)	50 to 75%	A (1-25% inhibition)	0%	0%
Cc1c(-c2cccnc2)cn2nc(-c3nccn3C)nc(Nc3ccncn3)c12 [Compound 156, 5-Methyl-2-(1-methyl-1H-imidazol-2-yl)-6-(pyridin-3-yl)-N-(pyrimidin-4-yl)pyrrolo[2,1-f][1,2,4]triazin-4-amine]	D (D = 76-100% inhibition)	D (D = 76-100% inhibition)	D (D = 76-100% inhibition)	D (D = 76-100% inhibition)	76 to 100%	D* (85-100% activation)	1 to 24%	0%
CO[C@H]1C[C@H](Nc2nc(-c3nccn3C)nn3cc(-c4ccncc4)c(C)c23)C1 [Compound 159, N-((1r,3r)-3-Methoxycyclobutyl)-5-methyl-2-(1-methyl-1H-imidazol-2-yl)-6-(pyridin-4-yl)pyrrolo[2,1-f][1,2,4]triazin-4-amine]	0 (0 = 0% inhibition)	0 (0 = 0% inhibition)	0 (0 = 0% inhibition)	A (A = 1-25% inhibition)	0%	A (1-25% inhibition)	1 to 24%	0%
COc1cc(-c2cn3nc(-c4nccn4C)nc(N[C@H]4C[C@H](OC)C4)c3c2C)ccn1 [Compound 160, N-((1r,3r)-3-Methoxycyclobutyl)-6-(2-methoxypyridin-4-yl)-5-methyl-2-(1-methyl-1H-imidazol-2-yl)pyrrolo[2,1-f][1,2,4]triazin-4-amine]	A (A = 1-25% inhibition)	0 (0 = 0% inhibition)	0 (0 = 0% inhibition)	0 (0 = 0% inhibition)	1 to 25%	A* (1-25% activation)	75 to 100%	25 to 49%
COCCO[C@H]1C[C@H](Nc2nc(-c3nccn3C)nn3cc(-c4ccnc(OC)c4)c(C)c23)C1 [Compound 161, N-((1r,3r)-3-(2-Methoxy-ethoxy)cyclo-butyl)-6-(2-methoxy-pyridin-4-yl)-5-methyl-2-(1-methyl-1H-imidazol-2-yl)pyrrolo[2,1-f][1,2,4]triazin-4-amine]	0 (0 = 0% inhibition)	A (A = 1-25% inhibition)	0 (0 = 0% inhibition)	A (A = 1-25% inhibition)	1 to 25%	A (1-25% inhibition)	75 to 100%	50 to 74%
COc1cc(-c2cn3nc(-c4nccn4C)nc(N[C@H]4C[C@@H](OC)C4)c3c2C)ccn1 [Compound 162, N-((1s,3s)-3-Methoxycyclobutyl)-6-(2-methoxypyridin-4-yl)-5-methyl-2-(1-methyl-1H-imidazol-2-yl)pyrrolo[2,1-f][1,2,4]triazin-4-amine]	0 (0 = 0% inhibition)	0 (0 = 0% inhibition)	0 (0 = 0% inhibition)	A (A = 1-25% inhibition)	0%	A (1-25% inhibition)	25 to 49%	25 to 49%

Further lines, with some results ahead:

KRas G12D mutant + SOS: % inh. (KRas G12D mutant)	KRas G12D mutant: % inh. (KRas G12D mutant)	KRas wild type + SOS: % inh. (KRas wild type)	KRas wild type: % inh. (KRas wild type)	inhibition at 20 µM (Rac-1)	Structure (SMILES)	% inh of Erk1/2 phosphorylation in Panc-1 (Erk1/2 phosphorylation)	inhibition (IL6)	inhibition at 10 µM (TNF-alpha)
D (D = 76-100% inhibition)	D (D = 76-100% inhibition)	D (D = 76-100% inhibition)	D (D = 76-100% inhibition)	76 to 100%	Cc1c(-c2ccn(C3CC3)n2)cn2nc(-c3nccn3C)nc(Nc3cc(OCCCO)ccn3)c12 [Compound 149, 3-((2-((6-(1-Cyclopropyl-1H-pyrazol-3-yl)-5-methyl-2-(1-methyl-1H-imidazol-2-yl)pyrrolo[2,1-f][1,2,4]triazin-4-yl)amino)pyridin-4-yl)oxy)propan-1-ol]	D* (85-100% activation)	75 to 100%	75 to 100%
D (D = 76-100% inhibition)	D (D = 76-100% inhibition)	D (D = 76-100% inhibition)	D (D = 76-100% inhibition)	50 to 75%	Cc1c(-c2ccn(C3CC3)n2)cn2nc(-c3nccn3C)nc(Nc3cc(O)ccn3)c12 [Compound 150, 2-((6-(1-Cyclopropyl-1H-pyrazol-3-yl)-5-methyl-2-(1-methyl-1H-imidazol-2-yl)pyrrolo[2,1-f][1,2,4]triazin-4-yl)amino)pyridin-4-ol]	A (1-25% inhibition)	1 to 24%	0%
D (D = 76-100% inhibition)	D (D = 76-100% inhibition)	D (D = 76-100% inhibition)	D (D = 76-100% inhibition)	76 to 100%	COc1ccnc(Nc2nc(-c3nccn3C)nn3cc(-c4cccnc4)c(C)c23)c1 [Compound 157, N-(4-Methoxy-pyridin-2-yl)-5-methyl-2-(1-methyl-1H-imidazol-2-yl)-6-(pyridin-3-yl)pyrrolo[2,1-f][1,2,4]triazin-4-amine]	C* (46-84% activation)	1 to 24%	0%
D (D = 76-100% inhibition)	D (D = 76-100% inhibition)	D (D = 76-100% inhibition)	D (D = 76-100% inhibition)	76 to 100%	COc1ccnc(Nc2nc(-c3nccn3C)nn3cc(-c4cccnc4)c(C)c23)n1 [Compound 158, N-(4-Methoxy-pyrimidin-2-yl)-5-methyl-2-(1-methyl-1H-imidazol-2-yl)-6-(pyridin-3-yl)pyrrolo[2,1-f][1,2,4]triazin-4-amine]	A (1-25% inhibition)	1 to 24%	0%
D (D = 76-100% inhibition)	D (D = 76-100% inhibition)	D (D = 76-100% inhibition)	D (D = 76-100% inhibition)	50 to 75%	COc1ccnc(Nc2nc(-c3nccn3C)nn3cc(-c4cnn(C(C)C)c4)c(C)c23)c1 [Compound 165, 6-(1-Isopropyl-1H-pyrazol-4-yl)-N-(4-methoxypyridin-2-yl)-5-methyl-2-(1-methyl-1H-imidazol-2-yl)pyrrolo[2,1-f][1,2,4]triazin-4-amine]	C* (46-84% activation)	50 to 74%	1 to 24%
